Test results from patent publication US20060030549A1, “Paricalcitol(zemplar) capsule controls secondary hyperparathyroidism (SHPT) in CKD stage 5 patients” (priority 2003, published 2006).

Tested on: CKD stage 5 subjects on hemodialysis (HD) or peritoneal dialysis (PD)
Test: Double-blind, placebo-controlled, multicenter studies of paricalcitol capsule in secondary hyperparathyroidism
Type: in vivo, human
Details: for duration of iPTH/PTH reduction: HD and PD subjects, 12-week treatment; for AE (adverse event) profile: versus placebo group
Method: Paricalcitol capsule is an oral formulation of paricalcitol injection, a vitamin D analog effective in the prevention and treatment of SHPT associated with chronic renal failure. Three doubleblind, placebo-controlled, multicenter studies were conducted to evaluate the safety and efficacy of paricalcitol capsule in CKD stage 5 subjects on hemodialysis (HD) or peritoneal dialysis (PD). After a 4-8 week washout period, 225 subjects (HD: 150, PD: 75) with iPTH≧300 pg/mL, serum Ca 8.0-10.5 mg/dL and Ca×P04<65 were randomized (1:1) and treated with paricalcitol capsule or placebo 3× weekly for 12 weeks. Initial doses were based on iPTH levels at baseline (initial mcg dose=iPTH/60). Subsequent dose adjustments of 2 mcg were based on the weekly Ca, Ca×P04, and iPTH results; dose increases occurred every 2 weeks and decreases once per week.

Q: `C[C@H](/C=C/[C@H](C)C(C)(C)O)[C@H]1CC[C@H]2/C(=C/C=C3C[C@@H](O)C[C@H](O)C3)CCC[C@]12C` [paricalcitol] was tested. Which “subjects with 2 consecutive 30 decreases in iPTH” value (95/105 subjects, capsule 3x weekly for 12 weeks, initial mcg dose = iPTH/60, p<0.001 vs placebo) did it give?
A: 90%

Q: What about the “duration of iPTH/PTH reduction” value of the same compound?
A: sustained throughout the treatment

Q: What about the “duration of iPTH/PTH reduction” value (listed as paricalcitol capsule) of the same compound?
A: sustained reduction of PTH

Q: What about the “mean iPTH reduction” value (by Week 3, 3x weekly dosing) of the same compound?
A: 30%

Q: And the “influence of subject factors on efficacy” value (demographics, disease severity, baseline P04, phosphate binder type)?
A: not influenced by demographics, disease severity, baseline P04 or types of phosphate binder usage

Q: And the “mean serum P04, maximum value” (increased initially to the maximum, then decreased)?
A: 5.7 mg/dL

Q: And the “mean Ca” value (throughout 12-week treatment)?
A: under 10.0 mg/dL

Q: And the “AE (adverse event) profile” value?
A: comparable between the groups

Q: What about the “AE (adverse event) profile” value (listed as paricalcitol capsule) of the same compound?
A: comparable to placebo
